Counter-ions that a name gives are not always drawn.
Biological target: T1, Androgen Receptor (Homo sapiens, UniProt P10275, T878A)
T1 construct: the AR gene was modified, using CRISPR/Cas9 editing, so the expressed AR protein included an 11 amino acid HiBiT tag; endogenous in cells; host or cells: clonal LnCaP-derived line, AR gene edited by CRISPR/Cas9
Test: Androgen Receptor Degradation Assay (Nano-Glo HiBiT)
Format: cell-based
Conditions: LNCaP, 18 h, HiBiT-tagged AR in human LnCaP cells, read-out: mean asymptote max
Summary of the method: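 LnCaP cells with CRISPR-knocked-in N-terminal HiBiT-tagged AR (10,000/well) treated 18 h at 37 °C with PROTACs over 11 threefold concentrations; lytic HiBiT luminescence normalised to DMSO (0%) and cell-free (100%) controls. Relative DC50 = 4-parameter fit inflection; absolute DC50 = 50% degradation interpolation; Dmax = maximum observed degradation.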

T1 sequence (P10275 whole entry T878A): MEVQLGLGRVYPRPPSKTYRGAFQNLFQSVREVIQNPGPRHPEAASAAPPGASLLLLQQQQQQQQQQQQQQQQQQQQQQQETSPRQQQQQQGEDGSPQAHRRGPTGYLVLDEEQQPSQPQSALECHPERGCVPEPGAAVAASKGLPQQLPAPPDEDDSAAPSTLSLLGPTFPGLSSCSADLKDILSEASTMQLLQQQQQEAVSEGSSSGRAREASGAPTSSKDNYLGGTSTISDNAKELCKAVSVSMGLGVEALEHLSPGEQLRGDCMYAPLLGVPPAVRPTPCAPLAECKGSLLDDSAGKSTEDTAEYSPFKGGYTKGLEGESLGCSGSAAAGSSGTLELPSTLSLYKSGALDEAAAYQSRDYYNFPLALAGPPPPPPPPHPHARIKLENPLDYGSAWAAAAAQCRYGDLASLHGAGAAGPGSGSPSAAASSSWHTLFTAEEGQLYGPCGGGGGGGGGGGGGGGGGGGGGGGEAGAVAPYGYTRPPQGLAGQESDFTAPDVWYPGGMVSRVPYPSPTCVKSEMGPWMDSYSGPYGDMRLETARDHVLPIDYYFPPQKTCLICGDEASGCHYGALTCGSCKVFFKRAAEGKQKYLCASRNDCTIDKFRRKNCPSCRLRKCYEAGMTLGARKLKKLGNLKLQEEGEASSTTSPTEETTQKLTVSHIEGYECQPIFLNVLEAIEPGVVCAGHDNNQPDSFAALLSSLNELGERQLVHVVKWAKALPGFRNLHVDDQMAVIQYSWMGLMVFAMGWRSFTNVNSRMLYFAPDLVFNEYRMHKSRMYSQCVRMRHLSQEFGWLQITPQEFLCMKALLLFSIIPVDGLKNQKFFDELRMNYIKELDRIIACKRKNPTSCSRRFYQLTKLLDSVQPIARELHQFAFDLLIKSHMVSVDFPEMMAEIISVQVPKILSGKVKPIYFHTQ
T1 sequence (Q96SW2 whole entry partner): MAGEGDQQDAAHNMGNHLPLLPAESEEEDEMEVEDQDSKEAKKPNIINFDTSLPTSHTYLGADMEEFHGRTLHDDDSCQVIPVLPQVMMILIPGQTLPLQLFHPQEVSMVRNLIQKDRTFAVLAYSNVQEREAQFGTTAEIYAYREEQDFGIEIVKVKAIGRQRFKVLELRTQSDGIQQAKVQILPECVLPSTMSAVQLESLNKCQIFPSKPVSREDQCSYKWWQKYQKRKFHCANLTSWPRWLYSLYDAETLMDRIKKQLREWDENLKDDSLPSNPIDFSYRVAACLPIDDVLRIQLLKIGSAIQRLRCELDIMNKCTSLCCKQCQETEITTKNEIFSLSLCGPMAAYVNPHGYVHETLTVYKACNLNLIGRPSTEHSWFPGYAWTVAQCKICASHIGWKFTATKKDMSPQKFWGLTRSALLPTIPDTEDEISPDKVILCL
T1 sequence (Q16531 whole entry partner): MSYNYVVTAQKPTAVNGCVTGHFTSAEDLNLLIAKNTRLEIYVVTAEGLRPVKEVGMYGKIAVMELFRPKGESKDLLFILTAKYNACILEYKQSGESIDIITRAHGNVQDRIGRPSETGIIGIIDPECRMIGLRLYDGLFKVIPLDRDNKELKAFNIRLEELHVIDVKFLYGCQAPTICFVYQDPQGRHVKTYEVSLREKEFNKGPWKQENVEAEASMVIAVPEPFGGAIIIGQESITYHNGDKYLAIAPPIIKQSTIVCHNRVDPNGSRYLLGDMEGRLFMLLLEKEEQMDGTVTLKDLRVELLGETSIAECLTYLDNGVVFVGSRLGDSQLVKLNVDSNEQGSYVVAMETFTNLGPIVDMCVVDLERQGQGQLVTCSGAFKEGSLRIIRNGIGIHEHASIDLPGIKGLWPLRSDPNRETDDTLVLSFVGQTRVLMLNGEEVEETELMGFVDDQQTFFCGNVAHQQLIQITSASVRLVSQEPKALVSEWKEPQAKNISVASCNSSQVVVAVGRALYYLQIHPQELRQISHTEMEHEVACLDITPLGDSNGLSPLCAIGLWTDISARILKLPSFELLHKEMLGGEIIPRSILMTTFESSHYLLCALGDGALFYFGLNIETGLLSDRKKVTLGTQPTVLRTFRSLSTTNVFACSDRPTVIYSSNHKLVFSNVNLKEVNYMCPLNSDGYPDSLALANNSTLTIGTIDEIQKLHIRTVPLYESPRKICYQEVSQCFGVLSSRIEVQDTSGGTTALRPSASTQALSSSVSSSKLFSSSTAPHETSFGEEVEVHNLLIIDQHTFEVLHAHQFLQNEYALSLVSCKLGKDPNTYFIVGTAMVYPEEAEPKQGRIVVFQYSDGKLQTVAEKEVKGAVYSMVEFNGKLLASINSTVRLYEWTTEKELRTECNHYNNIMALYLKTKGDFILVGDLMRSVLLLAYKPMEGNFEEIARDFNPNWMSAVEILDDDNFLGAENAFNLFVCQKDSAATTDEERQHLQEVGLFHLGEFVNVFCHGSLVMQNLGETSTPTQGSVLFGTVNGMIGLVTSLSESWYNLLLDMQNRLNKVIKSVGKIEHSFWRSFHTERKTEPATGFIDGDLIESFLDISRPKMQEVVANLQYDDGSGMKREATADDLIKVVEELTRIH

Row | SMILES | Dmax [%]
1 | CC(C)n1ccc2c(N3CCC(=O)NC3=O)cc(C(=O)N(C)CC3CCN(CC4CCN(c5ccc(N6C(=S)N(c7ccc(C#N)c(C(F)(F)F)c7)C(=O)C6(C)C)cc5)CC4)CC3)cc21 [EAR89, N-((1-((1-(4-(3-(4-Cyano-3-(trifluoromethyl)phenyl)-5,5-dimethyl-4-oxo-2-thioxoimidazolidin-1-yl)phenyl)piperidin-4-yl)methyl)piperidin-4-yl)methyl)-4-(2,4-dioxotetrahydropyrimidin-1(2H)-yl)-1-isopropyl-N-methyl-1H-indole-6-carboxamide] | ≥ 50
2 | CC(C)n1ccc2c(N3CCC(=O)NC3=O)cc(C(=O)N(C)CC3CCN(CCC4CCN(c5ccc(N6C(=S)N(c7ccc(C#N)c(C(F)(F)F)c7)C(=O)C6(C)C)cc5)CC4)CC3)cc21 [EAR91, N-((1-(2-(1-(4-(3-(4-Cyano-3-(trifluoromethyl)phenyl)-5,5-dimethyl-4-oxo-2-thioxoimidazolidin-1-yl)phenyl)piperidin-4-yl)ethyl)piperidin-4-yl)methyl)-4-(2,4-dioxotetrahydropyrimidin-1(2H)-yl)-1-isopropyl-N-methyl-1H-indole-6-carboxamide] | ≥ 50
3 | CC(C)n1ccc2c(N3CCC(=O)NC3=O)cc(C(=O)N3CCN(CCCCOc4ccc(N5C(=S)N(c6ccc(C#N)c(C(F)(F)F)c6)C(=O)C5(C)C)cc4)CC3)cc21 [EAR92, 4-(3-(4-(4-(4-(4-(2,4-Dioxotetrahydropyrimidin-1(2H)-yl)-1-isopropyl-1H-indole-6-carbonyl)piperazin-1-yl)butoxy)phenyl)-4,4-dimethyl-5-oxo-2-thioxoimidazolidin-1-yl)-2-(trifluoromethyl)benzonitrile] | ≥ 50
4 | CC(C)n1ccc2c(N3CCC(=O)NC3=O)cc(C(=O)N(C)CC3CCN(CCCOc4ccc(N5C(=S)N(c6ccc(C#N)c(C(F)(F)F)c6)C(=O)C5(C)C)cc4)CC3)cc21 [EAR93, N-((1-(3-(4-(3-(4-Cyano-3-(trifluoromethyl)phenyl)-5,5-dimethyl-4-oxo-2-thioxoimidazolidin-1-yl)phenoxy)propyl)piperidin-4-yl)methyl)-4-(2,4-dioxotetrahydropyrimidin-1(2H)-yl)-1-isopropyl-N-methyl-1H-indole-6-carboxamide formate] | ≥ 50
5 | CC(C)n1ccc2c(N3CCC(=O)NC3=O)cc(C(=O)N3CCN(CCCOc4ccc(N5C(=S)N(c6ccc(C#N)c(C(F)(F)F)c6)C(=O)C5(C)C)cc4)CC3)cc21 [EAR94, 4-(3-(4-(3-(4-(4-(2,4-Dioxotetrahydropyrimidin-1(2H)-yl)-1-isopropyl-1H-indole-6-carbonyl)piperazin-1-yl)propoxy)phenyl)-4,4-dimethyl-5-oxo-2-thioxoimidazolidin-1-yl)-2-(trifluoromethyl)benzonitrile formate] | ≥ 50
6 | CC1(C)C(=O)N(c2ccc(C#N)c(C(F)(F)F)c2)C(=S)N1c1ccc(N2CCC(CN3CCC(n4ncc5c(N6CCC(=O)NC6=O)cccc54)CC3)CC2)cc1 [EAR95, 4-(3-(4-(4-((4-(4-(2,4-Dioxotetrahydropyrimidin-1(2H)-yl)-1H-indazol-1-yl)piperidin-1-yl)methyl)piperidin-1-yl)phenyl)-4,4-dimethyl-5-oxo-2-thioxoimidazolidin-1-yl)-2-(trifluoromethyl)benzonitrile] | ≥ 50
7 | CC1(C)C(=O)N(c2ccc(C#N)c(C(F)(F)F)c2)C(=S)N1c1ccc(N2CCC(N3CCC(n4ccc5c(N6CCC(=O)NC6=O)cncc54)CC3)CC2)cc1 [EAR96, 4-(3-(4-(4-(4-(2,4-Dioxotetrahydropyrimidin-1(2H)-yl)-1H-pyrrolo[2,3-c]pyridin-1-yl)-[1,4′-bipiperidin]-1′-yl)phenyl)-4,4-dimethyl-5-oxo-2-thioxoimidazolidin-1-yl)-2-(trifluoromethyl)benzonitrile formate] | ≥ 50
